Experiment [1] addresses FGFR3-BAIAP2L1 Ba/F3 cells (Homo sapiens, UniProt P22607). Kind of experiment: Ba/F3 cell viability assay (CellTiter-Glo 2.0), FGFR3-BAIAP2L1 Ba/F3. Format: cell-based. The settings on record: for Ba/F3 FGFR1/FGFR3 Selectivity: FGFR3 > FGFR1 selectivity ratio in Ba/F3 FGFR fusion cell based assays; for IC50: read-out: Ba/F3 Cells FGFR3 (IC50 nM), FGFR3-BAIAP2L1 Ba/F3 cells, 48 hours, Cell Titer Glo 2.0. An outline of the steps:
(§1)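 Viability read as ATP luminescence (CellTiter-Glo 2.0) after 48 h compound exposure, normalized to DMSO-treated cells and fitted with a 4-parameter curve for IC50. Cells: Ba/F3 dependent on FGFR1-BCR or FGFR3-BAIAP2L1 fusion kinase; top dose 30 μM, 10-fold steps, 9 doses in triplicate.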
For orientation: Cellular ATP, detected with luciferase, serves as a proxy for viable cell number.

Experiment [2] has as its target FGFR1-BCR Ba/F3 cells (Homo sapiens, UniProt P11362). Kind of experiment: Ba/F3 cell viability assay (CellTiter-Glo 2.0), FGFR1-BCR Ba/F3. The class given is cell-based. The conditions noted are these: read-out: Ba/F3 Cells FGFR1 (IC50 nM), 48 hours, Cell Titer Glo 2.0. The gist of the method:
as §1

The subject of experiment [3] is RT112/84 cells (FGFR3-fusion). The experiment is described as follows: RT112/84 cancer cell line cell viability assay (CellTiter-Glo 2.0). The class given is cell-based. The settings on record: Homo sapiens, 72 hours, Cell Titer Glo 2.0. The gist of the method: (§2)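 Viability was measured as cellular ATP by CellTiter-Glo 2.0 luminescence after 72 h compound exposure, using nine 10-fold doses from 30 μM, in triplicate. Cells were plated at 10,000/well in RPMI1640 with 10% FBS the day before dosing. Signal was expressed as % of DMSO-treated control, and IC50 came from a 4-parameter fit.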

Experiment [4] concerns UM-UC-14 cells (FGFR3(S249C)). Kind of experiment: UM-UC-14 cancer cell line cell viability assay (CellTiter-Glo 2.0). The class given is cell-based. The conditions noted are these: UMUC14, 72 hours, Cell Titer Glo 2.0. An outline of the steps: as §2
Experiment [5] deals with KG-1 cells (FGFR1-fusion). Kind of experiment: KG-1 cancer cell line cell viability assay (CellTiter-Glo 2.0). Format: cell-based. The conditions noted are these: Homo sapiens, 72 hours, Cell Titer Glo 2.0. An outline of the steps: as §2
Experiment [6] deals with FGFR1 (Homo sapiens (Human), UniProt P11362). Kind of experiment: Kinase assay, binding constants (Kd), kinase-tagged T7 phage, qPCR. An outline of the steps:
(§3)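 Using T7 phage lysates from BL21-derived E. coli, compounds at 0.9% final DMSO competed for kinase binding to ligand-bearing magnetic beads. After elution, qPCR measured remaining kinase, and Kds were fitted by non-linear least squares with the Hill slope fixed at −1.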
(In general: Quantitative PCR measures a nucleic acid by following its amplification.)

The target of experiment [7] is FGFR2 (Homo sapiens (Human), UniProt P21802). The description is as above. An outline of the steps: as §3
FGFR2, sequence (P21802 22-821): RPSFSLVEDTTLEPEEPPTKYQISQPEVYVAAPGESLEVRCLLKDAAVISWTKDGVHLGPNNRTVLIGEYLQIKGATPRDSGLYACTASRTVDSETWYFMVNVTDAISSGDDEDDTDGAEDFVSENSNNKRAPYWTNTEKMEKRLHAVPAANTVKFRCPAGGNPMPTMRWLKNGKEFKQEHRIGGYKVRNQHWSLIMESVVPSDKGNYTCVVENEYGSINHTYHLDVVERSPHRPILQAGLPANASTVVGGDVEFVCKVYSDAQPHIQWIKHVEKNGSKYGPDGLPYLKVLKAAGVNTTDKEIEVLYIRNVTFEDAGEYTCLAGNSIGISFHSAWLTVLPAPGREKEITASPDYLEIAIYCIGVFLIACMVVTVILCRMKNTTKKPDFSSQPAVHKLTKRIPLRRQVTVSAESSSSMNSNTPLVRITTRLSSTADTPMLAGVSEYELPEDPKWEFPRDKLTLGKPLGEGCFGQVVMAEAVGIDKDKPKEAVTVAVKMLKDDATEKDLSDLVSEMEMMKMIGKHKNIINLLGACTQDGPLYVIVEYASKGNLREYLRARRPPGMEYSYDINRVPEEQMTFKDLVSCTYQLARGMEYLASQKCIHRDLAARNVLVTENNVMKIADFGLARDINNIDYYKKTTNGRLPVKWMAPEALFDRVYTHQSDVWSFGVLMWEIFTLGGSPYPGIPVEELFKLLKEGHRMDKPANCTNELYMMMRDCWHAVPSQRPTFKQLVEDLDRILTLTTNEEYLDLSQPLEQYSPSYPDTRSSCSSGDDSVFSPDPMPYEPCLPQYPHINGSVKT
In experiment [8] the target is FGFR3 (Homo sapiens (Human), UniProt P22607). Described as above. An outline of the steps: as §3
FGFR3, sequence (P22607 23-806): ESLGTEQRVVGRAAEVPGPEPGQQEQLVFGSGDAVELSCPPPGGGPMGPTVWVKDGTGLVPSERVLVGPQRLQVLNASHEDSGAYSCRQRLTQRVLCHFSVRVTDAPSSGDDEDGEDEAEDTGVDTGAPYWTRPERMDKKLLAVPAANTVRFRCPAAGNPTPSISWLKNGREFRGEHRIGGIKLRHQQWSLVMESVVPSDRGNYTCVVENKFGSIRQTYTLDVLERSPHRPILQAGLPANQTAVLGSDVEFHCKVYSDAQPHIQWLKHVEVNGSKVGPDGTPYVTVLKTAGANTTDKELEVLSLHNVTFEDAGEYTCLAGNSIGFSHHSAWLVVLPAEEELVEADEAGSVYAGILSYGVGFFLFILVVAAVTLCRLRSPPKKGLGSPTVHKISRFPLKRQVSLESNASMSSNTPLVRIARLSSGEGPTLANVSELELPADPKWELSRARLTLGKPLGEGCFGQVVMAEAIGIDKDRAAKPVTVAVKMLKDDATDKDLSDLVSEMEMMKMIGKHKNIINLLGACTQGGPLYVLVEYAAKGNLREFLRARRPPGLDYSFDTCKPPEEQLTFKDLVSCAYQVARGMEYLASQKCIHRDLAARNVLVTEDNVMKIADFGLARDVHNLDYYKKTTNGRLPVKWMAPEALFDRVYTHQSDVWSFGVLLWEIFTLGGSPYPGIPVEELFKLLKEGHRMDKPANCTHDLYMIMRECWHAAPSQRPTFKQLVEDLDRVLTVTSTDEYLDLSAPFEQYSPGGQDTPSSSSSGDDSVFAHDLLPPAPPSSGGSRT
Experiment [9] has as its target FGFR3 (V555M) (Homo sapiens (Human), UniProt P22607, V555M). The experiment is described as above. The settings on record: V555M mutant. The gist of the method:
as §3

The target in experiment [10] is FGFR4 (Homo sapiens (Human), UniProt P22455). Described as above. An outline of the steps: as §3
FGFR4, sequence (P22455 22-802): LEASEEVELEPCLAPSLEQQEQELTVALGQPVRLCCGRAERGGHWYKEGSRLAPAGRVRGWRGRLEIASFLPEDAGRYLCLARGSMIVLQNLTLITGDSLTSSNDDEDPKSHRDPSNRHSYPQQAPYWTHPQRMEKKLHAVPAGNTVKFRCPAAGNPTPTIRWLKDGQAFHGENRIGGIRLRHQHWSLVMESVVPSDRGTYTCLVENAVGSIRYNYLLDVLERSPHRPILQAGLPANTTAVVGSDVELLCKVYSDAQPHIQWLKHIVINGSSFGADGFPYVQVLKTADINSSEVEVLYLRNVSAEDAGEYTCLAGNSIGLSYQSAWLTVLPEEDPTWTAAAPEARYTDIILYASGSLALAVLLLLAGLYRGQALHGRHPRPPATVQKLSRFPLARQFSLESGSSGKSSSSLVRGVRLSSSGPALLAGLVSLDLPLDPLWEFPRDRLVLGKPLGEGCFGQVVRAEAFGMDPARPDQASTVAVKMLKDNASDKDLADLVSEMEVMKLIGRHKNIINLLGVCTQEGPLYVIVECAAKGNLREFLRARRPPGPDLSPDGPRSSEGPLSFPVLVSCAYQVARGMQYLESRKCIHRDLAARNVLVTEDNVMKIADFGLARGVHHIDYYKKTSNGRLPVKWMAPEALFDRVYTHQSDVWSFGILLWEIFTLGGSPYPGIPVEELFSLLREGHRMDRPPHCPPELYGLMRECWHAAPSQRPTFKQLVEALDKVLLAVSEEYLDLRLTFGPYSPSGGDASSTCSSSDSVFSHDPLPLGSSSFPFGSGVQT

Structures are written as SMILES.

FGFR3 (V555M), sequence (P22607 23-806 V555M): as the sequence (P22607 23-806) above, with V533M counted along it
FGFR1-BCR Ba/F3 cells, sequence (P11362 22-822 limits assumed, change not shown): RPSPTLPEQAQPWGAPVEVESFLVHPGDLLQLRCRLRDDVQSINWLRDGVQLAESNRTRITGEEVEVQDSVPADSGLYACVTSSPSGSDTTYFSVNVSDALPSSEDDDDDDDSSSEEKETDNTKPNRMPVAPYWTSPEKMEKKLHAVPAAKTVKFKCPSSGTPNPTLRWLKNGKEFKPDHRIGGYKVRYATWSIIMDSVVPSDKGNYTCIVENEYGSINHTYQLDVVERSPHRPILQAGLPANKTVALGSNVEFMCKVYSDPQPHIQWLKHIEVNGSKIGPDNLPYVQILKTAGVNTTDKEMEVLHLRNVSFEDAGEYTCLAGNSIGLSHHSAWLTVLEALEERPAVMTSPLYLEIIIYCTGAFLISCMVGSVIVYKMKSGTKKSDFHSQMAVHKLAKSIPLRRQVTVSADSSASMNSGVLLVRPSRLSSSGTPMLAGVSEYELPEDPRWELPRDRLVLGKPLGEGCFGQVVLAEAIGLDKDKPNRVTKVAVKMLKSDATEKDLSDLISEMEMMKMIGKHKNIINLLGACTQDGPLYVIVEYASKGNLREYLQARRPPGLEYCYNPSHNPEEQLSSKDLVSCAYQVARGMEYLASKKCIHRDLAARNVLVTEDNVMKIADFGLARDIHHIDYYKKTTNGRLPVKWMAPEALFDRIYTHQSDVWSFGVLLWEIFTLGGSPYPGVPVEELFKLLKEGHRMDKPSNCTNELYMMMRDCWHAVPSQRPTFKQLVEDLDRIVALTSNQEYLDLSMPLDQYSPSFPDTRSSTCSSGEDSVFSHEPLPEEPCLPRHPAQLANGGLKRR
FGFR1, sequence (P11362 22-822): as the sequence (P11362 22-822 limits assumed, change not shown) above
FGFR3-BAIAP2L1 Ba/F3 cells, sequence (P22607 23-806 limits assumed, change not shown): as the sequence (P22607 23-806) above

A word on the Kd: it is the constant that tells how readily two partners part at equilibrium. Low readings indicate a tighter complex, high ones a looser complex. As for `C[C@@H](Oc1ccc2[nH]nc(-c3cnc(N4CCC5(CCCN5C)CC4)nc3)c2c1)c1c(Cl)cncc1Cl` [Example 52, 8-[5-[5-[(1R)-1-(3,5-dichloro-4-pyridyl)ethoxy]-1H-indazol-3-yl]pyrimidin-2-yl]-1-methyl-1,8-diazaspiro[4.5]decane], the “Ba/F3 FGFR1/FGFR3 Selectivity” value in experiment [1] came to 7. Further, the IC50 fell in the range of 20 to 100 nM in experiment [1]; 100 to 300 nM in experiment [2]; 20 to 100 nM in experiment [3]; 20 to 100 nM in [4]; 20 to 100 nM in experiment [5]. The Kd is 1 to 20 nM in [6]; 20 to 100 nM in experiment [7]; 1 to 20 nM in experiment [8]; 1 to 20 nM in experiment [9]; 1 to 20 nM in experiment [10].

Consider `C[C@@H](Oc1ccc2[nH]nc(-c3cnc(N4CCC5(CCC(=O)N5C)CC4)nc3)c2c1)c1c(Cl)cncc1Cl` [Example 54, 8-[5-[5-[(1R)-1-(3,5-dichloro-4-pyridyl)ethoxy]-1H-indazol-3-yl]pyrimidin-2-yl]-1-methyl-1,8-diazaspiro[4.5]decan-2-one], for which the “Ba/F3 FGFR1/FGFR3 Selectivity” value in experiment [1] is on record as 13. Besides, the IC50 was 1 to 20 nM in experiment [1]; 100 to 300 nM in experiment [2]; 1 to 20 nM in experiment [3]; 1 to 20 nM in experiment [4]; 100 to 300 nM in [5]. For the same molecule, the equilibrium dissociation constant (Kd) in [6], in experiment [7], in experiment [8], in experiment [9] and in experiment [10] was 1 to 20 nM in each case.

Regarding `C[C@@H](Oc1ccc2[nH]nc(-c3cnc(N4CCCN(C5COC5)CC4)nc3)c2c1)c1c(Cl)cncc1Cl` [Example 60, 5-[(1R)-1-(3,5-Dichloro-4-pyridyl)ethoxy]-3-[2-[4-(oxetan-3-yl)-1,4-diazepan-1-yl]pyrimidin-5-yl]-1H-indazole], in experiment [1], the “Ba/F3 FGFR1/FGFR3 Selectivity” value was 13. Besides, the IC50 in experiment [1] is 1 to 20 nM; in experiment [2], 100 to 300 nM; in [3], 20 to 100 nM; in [4], 20 to 100 nM; in [5], 100 to 300 nM. The Kd in experiment [6], in [7], in experiment [8], in experiment [9] and in experiment [10] was 1 to 20 nM throughout.

`Cc1cncc(C)c1[C@@H](C)Oc1ccc2[nH]nc(-c3ccc(N4CC5(C4)CN(S(C)(=O)=O)C5)nc3)c2c1` [Example 139, 5-[(1R)-1-(3,5-dimethyl-4-pyridyl)ethoxy]-3-[6-(2-methylsulfonyl-2,6-diazaspiro[3.3]heptan-6-yl)-3-pyridyl]-1H-indazole]: in experiment [1], the “Ba/F3 FGFR1/FGFR3 Selectivity” value is on record as 14. The IC50 was 20 to 100 nM in [1]; 100 to 300 nM in experiment [2]; 1 to 20 nM in experiment [3]; 1 to 20 nM in [4]; 100 to 300 nM in experiment [5]. Besides, the Kd lay in the range of 20 to 100 nM in experiment [6]; 1 to 20 nM in experiment [7]; 1 to 20 nM in [8]; 1 to 20 nM in [9]; 1 to 20 nM in experiment [10].

As for `CCOC(=O)N1CC2(C1)CN(c1ccc(-c3n[nH]c4ccc(O[C@H](C)c5c(C)cnnc5C)cc34)cn1)C2` [Example 142, ethyl 6-[5-[5-[(1R)-1-(3,5-dimethylpyridazin-4-yl)ethoxy]-1H-indazol-3-yl]-2-pyridyl]-2,6-diazaspiro[3.3]heptane-2-carboxylate], the “Ba/F3 FGFR1/FGFR3 Selectivity” value in experiment [1] worked out at 25. Moreover, the IC50 in experiment [1] lay in the range of 1 to 20 nM; in [2], 100 to 300 nM; in [3], 20 to 100 nM; in experiment [4], 1 to 20 nM; in [5], 100 to 300 nM. For the same molecule, the Kd in experiment [6] fell in the range of 20 to 100 nM; in [7], 1 to 20 nM; in [8] it was 1 to 20 nM; in experiment [9], 1 to 20 nM; in [10] it was 1 to 20 nM.

Consider `C[C@@H](Oc1ccc2[nH]nc(-c3ccc(N4CC5(CCCS(=O)(=O)C5)C4)nc3)c2c1)c1c(Cl)cncc1Cl` [Example 159, 2-[5-[5-[(1R)-1-(3,5-dichloro-4-pyridyl)ethoxy]-1H-indazol-3-yl]-2-pyridyl]-6λ^6-thia-2-azaspiro[3.5]nonane 6,6-dioxide], for which, in experiment [1], the “Ba/F3 FGFR1/FGFR3 Selectivity” value was 16. The IC50 in [1] lay within 1 to 20 nM; in experiment [2], 20 to 100 nM; in experiment [3], 1 to 20 nM; in experiment [4], 20 to 100 nM; in experiment [5], 1 to 20 nM. Besides, the Kd in [6], in experiment [7], in experiment [8], in experiment [9] and in [10] was 1 to 20 nM throughout.
